The values that follow come from ChEMBL document CHEMBL3045054, “Synthesis and insecticidal activity of novel 1-alkyl-3-sulfonyloxypyrazole-4-carboxamide derivatives” (2010).

Holding throughout (format): functional
The subject of test [1] is Tetranychus urticae. Put plainly: Insecticidal activity against Tetranychus urticae (two-spotted spider mite) in compound treated kidney bean leaf disk assessed as mortality at 62.5 ppm measured after 7 days. The following applies: foliar, 168 h.
Test [2] has as its system Nephotettix cincticeps. Nature of the test: Insecticidal activity against Nephotettix cincticeps (green rice leafhopper) third instar larvae in compound treated rice seedlings assessed as mortality at 3.1 ppm measured after 7 days. The following applies: 168 h.
The test system of test [3] is Nephotettix cincticeps. Put plainly: Insecticidal activity against Nephotettix cincticeps (green rice leafhopper) third instar larvae in compound treated rice seedlings assessed as mortality at 62.5 ppm measured after 7 days. The following applies: 168 h.
In test [4] the test system is Tetranychus urticae. Put plainly: Insecticidal activity against Tetranychus urticae (two-spotted spider mite) eggs in compound treated kidney bean leaf disk assessed as ovicidal at 62.5 ppm measured after 7 days. The following applies: foliar, 168 h.
Test [5] relates to Tetranychus urticae. Nature of the test: Insecticidal activity against Tetranychus urticae (two-spotted spider mite) in compound treated kidney bean leaf disk assessed as mortality at 3.1 ppm measured after 7 days. The following applies: foliar, 168 h.
Test [6] has as its system Tetranychus urticae. Nature of the test: Insecticidal activity against Tetranychus urticae (two-spotted spider mite) eggs in compound treated kidney bean leaf disk assessed as ovicidal at 3.1 ppm measured after 7 days. The following applies: foliar, 168 h.
In test [7] the test system is Nephotettix cincticeps. Put plainly: Insecticidal activity against Nephotettix cincticeps (green rice leafhopper) third instar larvae in compound treated rice seedlings assessed as mortality at 1.3 ppm measured after 7 days. The following applies: 168 h.
For test [8], the system named is Nephotettix cincticeps. Nature of the test: Insecticidal activity against Nephotettix cincticeps (green rice leafhopper) third instar larvae in compound treated rice seedlings assessed as mortality at 500 ppm measured after 7 days. The following applies: 168 h.
Test [9] concerns Tetranychus urticae. Put plainly: Insecticidal activity against Tetranychus urticae (two-spotted spider mite) eggs in compound treated kidney bean leaf disk assessed as ovicidal at 500 ppm measured after 7 days. The following applies: foliar, 168 h.
In test [10] the test system is Tetranychus urticae. Put plainly: Insecticidal activity against Tetranychus urticae (two-spotted spider mite) in compound treated kidney bean leaf disk assessed as mortality at 500 ppm measured after 7 days. The following applies: foliar, 168 h.
Test [11] has as its system Tetranychus urticae. Nature of the test: Insecticidal activity against Tetranychus urticae (two-spotted spider mite) in compound treated kidney bean leaf disk assessed as mortality at 1.3 ppm measured after 7 days. The following applies: foliar, 168 h.
In test [12] the test system is Tetranychus urticae. Put plainly: Insecticidal activity against Tetranychus urticae (two-spotted spider mite) eggs in compound treated kidney bean leaf disk assessed as ovicidal at 1.3 ppm measured after 7 days. The following applies: foliar, 168 h.

Take `CC(C)NC(=O)c1cn(C(C)C)nc1OS(C)(=O)=O`: the mortality at 62.5 ppm was 50% with Tetranychus urticae [1], 100% in the test with Nephotettix cincticeps [3] and 47% in the test on Tetranychus urticae [4]. Also, the mortality at 3.1 ppm with Nephotettix cincticeps [2] amounted to 74%.
Consider `CCCNC(=O)c1cn(C)nc1OS(C)(=O)=O`, for which the mortality at 62.5 ppm in the test on Tetranychus urticae [1] stood at 25%; in the test with Nephotettix cincticeps [3], 87%; in the test with Tetranychus urticae [4] it was 7%.
For the compound `CC(C)NC(=O)c1cn(C)nc1OS(=O)(=O)CCl`, the mortality at 62.5 ppm in the test with Tetranychus urticae [1] came to 15%; with Nephotettix cincticeps [3], 100%; with Tetranychus urticae [4] it was 13%. Also, in the test with Nephotettix cincticeps [2], the mortality at 3.1 ppm was found to be 10%.
As to `CCCC(C#N)(CC)NC(=O)c1cn(C)nc1OS(C)(=O)=O` (stereo not given), the mortality at 62.5 ppm worked out at 15% in the test on Tetranychus urticae [1], 22% with Nephotettix cincticeps [3] and 39% with Tetranychus urticae [4].
`CCCC(C)NC(=O)c1cn(C)nc1OS(C)(=O)=O` (stereo not given): the mortality at 62.5 ppm in the test with Tetranychus urticae [1] came to 94%; with Nephotettix cincticeps [3], 100%; in the test on Tetranychus urticae [4] it was 44%. The mortality at 3.1 ppm came to 95% with Nephotettix cincticeps [2], 7% in the test on Tetranychus urticae [5] and 6% in the test on Tetranychus urticae [6].
As for `Cn1cc(C(=O)NC2CC2)c(OS(C)(=O)=O)n1`, the mortality at 62.5 ppm with Tetranychus urticae [1] turned out to be 21%; in the test with Nephotettix cincticeps [3], 97%; in the test on Tetranychus urticae [4] it was 9%. In the test on Nephotettix cincticeps [2], the mortality at 3.1 ppm worked out at 10%.
Turning to `CCNC(=O)c1cn(C)nc1OS(C)(=O)=O`, the mortality at 62.5 ppm in the test on Tetranychus urticae [1], with Nephotettix cincticeps [3] and with Tetranychus urticae [4] was 0% in each case.
As to `CC(C)N(C)C(=O)c1cn(C)nc1OS(C)(=O)=O`, the results for the mortality at 62.5 ppm in the test with Tetranychus urticae [1], with Nephotettix cincticeps [3] and in the test with Tetranychus urticae [4] were 10%, 41% and 5%, respectively.
As to `CC(C)NC(=O)c1cn(CCF)nc1OS(C)(=O)=O`, the results for the mortality at 62.5 ppm in the test with Tetranychus urticae [1], in the test on Nephotettix cincticeps [3] and in the test with Tetranychus urticae [4] were 50%, 100% and 69%, respectively. Besides, the mortality at 3.1 ppm in the test on Nephotettix cincticeps [2] was 43%.
Take `CC(C)C(C)(C#N)NC(=O)c1cn(C)nc1OS(C)(=O)=O` (stereo not given): the mortality at 62.5 ppm with Tetranychus urticae [1], in the test on Nephotettix cincticeps [3] and in the test on Tetranychus urticae [4] was 100% each time. In addition, the results for the mortality at 3.1 ppm in the test with Nephotettix cincticeps [2], in the test with Tetranychus urticae [5] and with Tetranychus urticae [6] were 32%, 11% and 26%, respectively.
Regarding `Cn1cc(C(=O)NC2(C#N)CCCCC2)c(OS(C)(=O)=O)n1`, the results for the mortality at 62.5 ppm in the test with Tetranychus urticae [1], with Nephotettix cincticeps [3] and with Tetranychus urticae [4] were 93%, 50% and 20%, respectively.
As for `CC(C)CNC(=O)c1cn(C)nc1OS(C)(=O)=O`, the mortality at 62.5 ppm is 89% in the test with Tetranychus urticae [1], 100% in the test with Nephotettix cincticeps [3] and 12% with Tetranychus urticae [4]. The mortality at 3.1 ppm with Nephotettix cincticeps [2] came out at 100%. In addition, in the test with Nephotettix cincticeps [7], the mortality at 1.3 ppm was 97%.
For `CCS(=O)(=O)Oc1nn(C(C)(C)C)cc1C(=O)NC(C)C`, the mortality at 500 ppm in the test with Nephotettix cincticeps [8] turned out to be 0%; with Tetranychus urticae [9], 0%; with Tetranychus urticae [10], 50%.
For `CC(C)NC(=O)c1cn(C)nc1OS(C)(=O)=O`, the values for the mortality at 62.5 ppm with Tetranychus urticae [1], with Nephotettix cincticeps [3] and with Tetranychus urticae [4] were 100%, 100% and 37%, respectively. Besides, the mortality at 3.1 ppm with Nephotettix cincticeps [2] worked out at 100%; in the test with Tetranychus urticae [5], 17%; with Tetranychus urticae [6] it was 23%. For the same compound, the mortality at 1.3 ppm came to 74% with Nephotettix cincticeps [7], 16% with Tetranychus urticae [11] and 22% in the test with Tetranychus urticae [12].
Turning to `CC(C)NC(=O)c1cn(C)nc1OS(=O)(=O)C(F)(F)F`, the mortality at 62.5 ppm was 15% with Tetranychus urticae [1], 24% in the test with Nephotettix cincticeps [3] and 10% with Tetranychus urticae [4].
As to `CCCC(C)(C#N)NC(=O)c1cn(C)nc1OS(C)(=O)=O` (stereo not given), the mortality at 62.5 ppm in the test with Tetranychus urticae [1] amounted to 64%; in the test on Nephotettix cincticeps [3] it was 100%; in the test with Tetranychus urticae [4] it was 67%. Moreover, the mortality at 3.1 ppm in the test with Nephotettix cincticeps [2] amounted to 81%; in the test on Tetranychus urticae [5], 8%; in the test on Tetranychus urticae [6] it was 3%.
Take `CCS(=O)(=O)Oc1nn(C)cc1C(=O)NC(C)C`: the mortality at 62.5 ppm with Tetranychus urticae [1] is 14%; with Nephotettix cincticeps [3], 100%; in the test with Tetranychus urticae [4], 2%. Also, in the test with Nephotettix cincticeps [2], the mortality at 3.1 ppm came to 55%.
On to `CC(C)NC(=O)c1cn(C)nc1OS(=O)(=O)N(C)C`, for which the mortality at 62.5 ppm in the test on Tetranychus urticae [1], in the test on Nephotettix cincticeps [3] and in the test with Tetranychus urticae [4] was 0% throughout.
With `CCCCCC(C)NC(=O)c1cn(C)nc1OS(C)(=O)=O` (stereo not given), the mortality at 62.5 ppm with Tetranychus urticae [1] was 29%; with Nephotettix cincticeps [3] it was 94%; in the test on Tetranychus urticae [4] it was 6%. Moreover, the mortality at 3.1 ppm in the test on Nephotettix cincticeps [2] came out at 8%.
Take `CCCn1cc(C(=O)NC(C)C)c(OS(C)(=O)=O)n1`: the mortality at 62.5 ppm in the test on Tetranychus urticae [1] was 36%; with Nephotettix cincticeps [3] it was 100%; in the test on Tetranychus urticae [4], 26%. In addition, the mortality at 3.1 ppm with Nephotettix cincticeps [2] amounted to 76%.
As to `Cn1cc(C(=O)NCC#N)c(OS(C)(=O)=O)n1`, the mortality at 62.5 ppm was 100% in the test on Tetranychus urticae [1], 47% in the test with Nephotettix cincticeps [3] and 100% in the test with Tetranychus urticae [4]. Moreover, the mortality at 3.1 ppm with Tetranychus urticae [5] and with Tetranychus urticae [6] was 8% each time.
Regarding `CCC(C#N)NC(=O)c1cn(C)nc1OS(C)(=O)=O` (stereo not given), the mortality at 62.5 ppm came to 100% in the test on Tetranychus urticae [1], 100% in the test on Nephotettix cincticeps [3] and 94% in the test with Tetranychus urticae [4]. For the same compound, the mortality at 3.1 ppm in the test on Nephotettix cincticeps [2] was determined as 10%; in the test on Tetranychus urticae [5] it was 7%; in the test on Tetranychus urticae [6], 3%.
For `CNC(=O)c1cn(C)nc1OS(C)(=O)=O`, the mortality at 62.5 ppm in the test on Tetranychus urticae [1] worked out at 19%; in the test on Nephotettix cincticeps [3] it was 20%; in the test with Tetranychus urticae [4], 4%.
Regarding `CC(C)NC(=O)c1cn(CCCl)nc1OS(C)(=O)=O`, the mortality at 62.5 ppm in the test with Tetranychus urticae [1] was determined as 80%; in the test with Nephotettix cincticeps [3], 100%; in the test on Tetranychus urticae [4], 34%. Besides, the figures for the mortality at 3.1 ppm in the test on Nephotettix cincticeps [2], in the test with Tetranychus urticae [5] and in the test with Tetranychus urticae [6] were 96%, 15% and 30%, respectively.
On to `CCn1cc(C(=O)NC(C)C)c(OS(C)(=O)=O)n1`, for which the mortality at 62.5 ppm in the test with Tetranychus urticae [1] stood at 51%; in the test on Nephotettix cincticeps [3], 100%; in the test on Tetranychus urticae [4], 13%. For the same compound, in the test on Nephotettix cincticeps [2], the mortality at 3.1 ppm is 100%.
On to `CCC(C#N)(CC)NC(=O)c1cn(C)nc1OS(C)(=O)=O`, for which the mortality at 62.5 ppm in the test with Tetranychus urticae [1], in the test on Nephotettix cincticeps [3] and in the test with Tetranychus urticae [4] was 100% each time. Besides, the mortality at 3.1 ppm with Nephotettix cincticeps [2] was 55%; in the test on Tetranychus urticae [5], 100%; with Tetranychus urticae [6], 100%.
`CCC(C)(C#N)NC(=O)c1cn(C)nc1OS(C)(=O)=O` (stereo not given): the mortality at 62.5 ppm with Tetranychus urticae [1], in the test on Nephotettix cincticeps [3] and in the test on Tetranychus urticae [4] was 100% in each case. Besides, the mortality at 3.1 ppm with Nephotettix cincticeps [2] turned out to be 88%; with Tetranychus urticae [5], 15%; in the test on Tetranychus urticae [6], 9%.
On to `CCC(CC)NC(=O)c1cn(C)nc1OS(C)(=O)=O`, for which the mortality at 62.5 ppm in the test on Tetranychus urticae [1] is 100%; in the test on Nephotettix cincticeps [3], 100%; in the test with Tetranychus urticae [4], 19%. The mortality at 3.1 ppm turned out to be 65% in the test on Nephotettix cincticeps [2] and 10% in the test on Tetranychus urticae [5].
Consider `Cn1cc(C(=O)NC(C)(C)C)c(OS(C)(=O)=O)n1`, for which the mortality at 62.5 ppm with Tetranychus urticae [1] was found to be 23%; with Nephotettix cincticeps [3], 100%; in the test on Tetranychus urticae [4] it was 3%. In addition, the mortality at 3.1 ppm in the test on Nephotettix cincticeps [2] was 80%.
As for `CC(NC(=O)c1cn(C)nc1OS(C)(=O)=O)c1ccccc1` (stereo not given), the mortality at 62.5 ppm was found to be 0% in the test on Tetranychus urticae [1], 81% in the test on Nephotettix cincticeps [3] and 0% in the test with Tetranychus urticae [4].
Regarding `Cn1cc(C(=O)NCC(F)(F)F)c(OS(C)(=O)=O)n1`, the mortality at 62.5 ppm was found to be 86% in the test on Tetranychus urticae [1], 22% with Nephotettix cincticeps [3] and 61% in the test with Tetranychus urticae [4].
